Patent publication US10125111B2, “Benzofuran compounds for the treatment of hepatitis C” (BRISTOL-MYERS SQUIBB COMPANY, priority 2015, dated 2018)
Read-outs that look alike come from different tables or passages of the source.

Tested on: genotype 1b (Con-1) HCV replicon
Assay: HCV Replicon Luciferase Assay
Format: cell-based
Settings: Hepatitis C virus, 72 h, Huh-7 genotype 1b replicon, Renilla luciferase, 3 days incubation
Protocol: The cell lines used to evaluate compounds consist of a human hepatocyte derived cell line (Huh-7) that constitutively expresses a genotype 1b (Con-1) HCV replicon or a genotype 1b (Con-1) HCV replicon with an asparagine replacing the cysteine at amino acid 316, or a genotype 2a (JFH-1) replicon, containing a Renilla luciferase reporter gene. These cells were maintained in Dulbecco's modified Eagle medium (DMEM) containing 10% FBS, 100 U/mL penicillin/streptomycin and 1.0 mg/mL G418.
To evaluate compound efficacy, titrated compounds were transferred to sterile 384-well tissue culture treated plates, and the plates were seeded with HCV replicon cells (50 μL at a density of 2.4×10^3 cells/well) in DMEM containing 4% FBS (final DMSO concentration at 0.5%). After 3 days incubation at 37° C., cells were analyzed for Renilla Luciferase activity using the EnduRen substrate (Promega cat #E6485) according to the manufacturer's directions. Briefly, the EnduRen substrate was diluted in DMEM and then added to the plates to a final concentration of 7.5 μM. The plates were incubated for at least 1 h at 37° C. then read on a Viewlux Imager (PerkinElmer) using a luminescence program. The 50% effective concentration (EC50) was calculated using the four-parameter logistic Formula noted above.
Compound EC50 data is expressed as A: <100 nM; B=100-1000 nM; C>1000 nM).

SMILES	EC50 (read-out: EC50 1b (class))	EC50 (read-out: EC50 (uM) 1b)
CNC(=O)c1c(-c2ccc(F)cc2)oc2cc(N(CCCF)S(C)(=O)=O)c(-c3cccc(C(=O)NC(C)(C)CO)c3)cc12 [Compound 4018]	< 0.1 µM	
CNC(=O)c1c(-c2ccc(F)cc2)oc2cc(N(CCF)S(C)(=O)=O)c(-c3cccc(C(=O)NC(C)(C)C(=O)OC)c3)cc12 [Compound 3014]	< 0.1 µM	
CC[C@H](NC(=O)c1cccc(-c2cc3c(C(=O)NC)c(-c4ccc(F)cc4)oc3cc2N(CCF)S(C)(=O)=O)c1)C1CC1 [Compound 3008]	< 0.1 µM	
[2H]C([2H])([2H])C(NC(=O)c1cccc(-c2cc3c(C(=O)NC)c(-c4ccc(F)cc4)oc3cc2N(C(F)F)S(C)(=O)=O)c1)(C([2H])([2H])[2H])C([2H])([2H])[2H] [Compound 6006]	< 0.1 µM	
CNC(=O)c1c(-c2ccc(F)cc2)oc2cc(N(CCF)S(C)(=O)=O)c(-c3cccc(C(=O)N4CCC(c5cccc(Cl)c5)C4)c3)cc12 (centres unmarked) [Compound 3040]	< 0.1 µM	0.0413 µM
CNC(=O)c1c(-c2ccc(F)cc2)oc2cc(NCCCF)c(-c3cccc(C(=O)NC(CF)(CF)CF)c3)cc12 [Compound 5006]	< 0.1 µM	0.0094 µM
CC[C@@H](NC(=O)c1cccc(-c2cc3c(C(=O)NC)c(-c4ccc(F)cc4)oc3cc2N(CCF)S(C)(=O)=O)c1)C1CC1 [Compound 3007]	< 0.1 µM	0.0057 µM
CNC(=O)c1c(-c2ccc(F)cc2)oc2cc(N(CCF)S(C)(=O)=O)c(-c3cccc(C(=O)N4CCN(C(=O)OC(C)(C)C)CC4(C)C)c3)cc12 [Compound 3044]	< 0.1 µM	
CNC(=O)c1c(-c2ccc(F)cc2)oc2cc(N(CCCF)S(C)(=O)=O)c(-c3cccc(C(=O)NC4(C)CC4)c3)cc12 [Compound 4016]	< 0.1 µM	
CNC(=O)c1c(-c2ccc(F)cc2)oc2cc(N(CCF)S(C)(=O)=O)c(-c3cccc(C(=O)N4CC(NC(=O)OC(C)(C)C)C4)c3)cc12 [Compound 3042]	0.1 to 1 µM	0.138 µM
CNC(=O)c1c(-c2ccc(F)cc2)oc2cc(N(CC3CC3)S(C)(=O)=O)c(-c3cccc(C(=O)NC(CF)(CF)CF)c3)cc12 [Compound 2004]	< 0.1 µM	
CNC(=O)c1c(-c2ccc(F)cc2)oc2cc(N(CCF)S(C)(=O)=O)c(-c3cccc(C(=O)N4CCN(c5ccccc5)CC4)c3)cc12 [Compound 3025]	< 0.1 µM	
CNC(=O)c1c(-c2ccc(F)cc2)oc2cc(N(CCF)S(C)(=O)=O)c(-c3cccc(C(=O)N4CCC[C@@H]4CO)c3)cc12 [Compound 3030]	0.1 to 1 µM	0.139 µM
CNC(=O)c1c(-c2ccc(F)cc2)oc2cc(N(CCCF)S(C)(=O)=O)c(-c3cccc(C(=O)NC4(C#N)CC4)c3)cc12 [Compound 4014]	< 0.1 µM	
CNC(=O)c1c(-c2ccc(F)cc2)oc2cc(N(CC=C(F)F)S(C)(=O)=O)c(-c3cccc(C(=O)OC)c3)cc12 [Compound 8001]	< 0.1 µM	
CNC(=O)c1c(-c2ccc(F)cc2)oc2cc(N(CCF)S(C)(=O)=O)c(-c3cccc(C(=O)N4CCC(NC(C)=O)C4)c3)cc12 (centres unmarked) [Compound 3036]	> 1 µM	
CNC(=O)c1c(-c2ccc(F)cc2)oc2cc(N(CCCF)S(C)(=O)=O)c(-c3cccc(C(=O)NC(C)(C)C(C)(C)C)c3)cc12 [Compound 4026]	< 0.1 µM	
CNC(=O)c1c(-c2ccc(F)cc2)oc2cc(N(CC(F)F)S(C)(=O)=O)c(-c3cccc(C(=O)NC(C)(C)C(F)(F)F)c3)cc12 [Compound 7003]	< 0.1 µM	
CNC(=O)c1c(-c2ccc(F)cc2)oc2cc(N(CCCF)S(C)(=O)=O)c(-c3cccc(C(=O)N[C@H](C)C(F)(F)F)c3)cc12 [Compound 4030]	< 0.1 µM	
CNC(=O)c1c(-c2ccc(F)cc2)oc2cc(N(CCF)S(C)(=O)=O)c(-c3cccc(C(=O)N4CCC[C@H]4CO)c3)cc12 [Compound 3035]	0.1 to 1 µM	
C#CC(CC)(CC)NC(=O)c1cccc(-c2cc3c(C(=O)NC)c(-c4ccc(F)cc4)oc3cc2N(CCCF)S(C)(=O)=O)c1 [Compound 4028]	< 0.1 µM	0.0056 µM
CNC(=O)c1c(-c2ccc(F)cc2)oc2cc(N(CCCF)S(C)(=O)=O)c(-c3cccc(C(=O)NC4(C)CCC4)c3)cc12 [Compound 4022]	< 0.1 µM	0.0077 µM
CNC(=O)c1c(-c2ccc(F)cc2)oc2cc(N(CCF)S(C)(=O)=O)c(-c3cccc(C(=O)N4CCN(c5cccnc5)CC4)c3)cc12 [Compound 3032]	> 1 µM	2.64 µM
CNC(=O)c1c(-c2ccc(F)cc2)oc2cc(N(CCF)S(C)(=O)=O)c(-c3cccc(C(=O)NC4(C#N)CC4)c3)cc12 [Compound 3011]	< 0.1 µM	
CNC(=O)c1c(-c2ccc(F)cc2)oc2cc(N(CCF)S(C)(=O)=O)c(-c3cccc(C(=O)N4CCCC4c4cccnc4)c3)cc12 (centres unmarked) [Compound 3022]	< 0.1 µM	

SMILES	EC50 (read-out: EC50 1b (class))	EC50 (read-out: EC50 (uM) 1b)
CNC(=O)c1c(-c2ccc(F)cc2)oc2cc(N(CCCF)S(C)(=O)=O)c(-c3cccc(C(=O)NC4(C(F)(F)F)CC4)c3)cc12 [Compound 4023]	< 0.1 µM	
CNC(=O)c1c(-c2ccc(F)cc2)oc2cc(N(C(F)F)S(C)(=O)=O)c(-c3cccc(C(=O)OC)c3)cc12 [Compound 6001]	< 0.1 µM	
CNC(=O)c1c(-c2ccc(F)cc2)oc2cc(N(CCF)S(C)(=O)=O)c(-c3cccc(C(=O)N4CCN(C(=O)OC(C)(C)C)CC4)c3)cc12 [Compound 3028]	< 0.1 µM	
CNC(=O)c1c(-c2ccc(F)cc2)oc2cc(N(CCF)S(C)(=O)=O)c(-c3cccc(C(=O)N4[C@@H](COC)CC[C@@H]4COC)c3)cc12 [Compound 3026]	0.1 to 1 µM	0.332 µM
CNC(=O)c1c(-c2ccc(F)cc2)oc2cc(N(CCCF)S(C)(=O)=O)c(-c3cccc(C(=O)NCC(F)F)c3)cc12 [Compound 4020]	< 0.1 µM	
CNC(=O)c1c(-c2ccc(F)cc2)oc2cc(N(CC3CC3)S(C)(=O)=O)c(-c3cccc(C(=O)O)c3)cc12 [Compound 2002]	> 1 µM	7.55 µM
CNC(=O)c1c(-c2ccc(F)cc2)oc2cc(N(CCF)S(C)(=O)=O)c(-c3cccc(C(=O)NC(C)(C)C#N)c3)cc12 [Compound 3005]	< 0.1 µM	0.005 µM
CCCC1CN(C(=O)c2ccccc2)CCN1C(=O)c1cccc(-c2cc3c(C(=O)NC)c(-c4ccc(F)cc4)oc3cc2N(CCF)S(C)(=O)=O)c1 (centres unmarked) [Compound 3043]	< 0.1 µM	
CNC(=O)c1c(-c2ccc(F)cc2)oc2cc(N(CCCF)S(C)(=O)=O)c(-c3cccc(C(=O)NCC(C)(C)C)c3)cc12 [Compound 4009]	< 0.1 µM	
CNC(=O)c1c(-c2ccc(F)cc2)oc2cc(N(CCF)S(C)(=O)=O)c(-c3cccc(C(=O)N4CC[C@H](O)C4)c3)cc12 [Compound 3037]	> 1 µM	
CNC(=O)c1c(-c2ccc(F)cc2)oc2cc(N(CCCF)S(C)(=O)=O)c(-c3cccc(C(=O)NC(C)(C)C(F)(F)F)c3)cc12 [Compound 4005]	< 0.1 µM	
CNC(=O)c1c(-c2ccc(F)cc2)oc2cc(NCCCF)c(-c3cccc(C(=O)NC(C)(C#N)C4CC4)c3)cc12 (centres unmarked) [Compound 5004]	< 0.1 µM	
CNC(=O)c1c(-c2ccc(F)cc2)oc2cc(N(CCCF)S(C)(=O)=O)c(-c3cccc(C(=O)NC(C)(C)C(=O)OC)c3)cc12 [Compound 4013]	< 0.1 µM	
CNC(=O)c1c(-c2ccc(F)cc2)oc2cc(N(CCCF)S(C)(=O)=O)c(-c3cccc(C(=O)NC(C4CC4)C4CC4)c3)cc12 [Compound 4025]	< 0.1 µM	
CNC(=O)c1c(-c2ccc(F)cc2)oc2cc(N(C(F)F)S(C)(=O)=O)c(-c3cccc(C(=O)NC(C)(C)C(F)(F)F)c3)cc12 [Compound 6003]	< 0.1 µM	0.0095 µM
CNC(=O)c1c(-c2ccc(F)cc2)oc2cc(N(CCF)S(C)(=O)=O)c(-c3cccc(C(=O)NC(CF)(CF)CF)c3)cc12 [Compound 3004]	< 0.1 µM	
CNC(=O)c1c(-c2ccc(F)cc2)oc2cc(N(CCCF)S(C)(=O)=O)c(-c3cccc(C(=O)NCC(C)C)c3)cc12 [Compound 4015]	< 0.1 µM	0.0075 µM
CNC(=O)c1c(-c2ccc(F)cc2)oc2cc(N(CCCF)S(C)(=O)=O)c(-c3cccc(C(=O)NC(C)C(F)(F)F)c3)cc12 (centres unmarked) [Compound 4003]	< 0.1 µM	0.0093 µM
CNC(=O)c1c(-c2ccc(F)cc2)oc2cc(N(CCC(F)(F)F)S(C)(=O)=O)c(-c3cccc(C(=O)NC(CF)(CF)CF)c3)cc12 [Compound 9005]	< 0.1 µM	
CNC(=O)c1c(-c2ccc(F)cc2)oc2cc(N(CCF)S(C)(=O)=O)c(-c3cccc(C(=O)N4[C@H](C)CC[C@H]4C)c3)cc12 [Compound 3023]	< 0.1 µM	
CNC(=O)c1c(-c2ccc(F)cc2)oc2cc(N(CCF)S(C)(=O)=O)c(-c3cccc(C(=O)N4CCN(C)CC4c4ccccc4)c3)cc12 (centres unmarked) [Compound 3019]	< 0.1 µM	
CNC(=O)c1c(-c2ccc(F)cc2)oc2cc(N(CCF)S(C)(=O)=O)c(-c3cccc(C(=O)N[C@@H](C)C4CC4)c3)cc12 [Compound 3009]	< 0.1 µM	
CNC(=O)c1c(-c2ccc(F)cc2)oc2cc(N(CCC(F)(F)F)S(C)(=O)=O)c(-c3cccc(C(=O)NCC(F)(F)C(F)(F)F)c3)cc12 [Compound 9003]	< 0.1 µM	0.0076 µM
CNC(=O)c1c(-c2ccc(F)cc2)oc2cc(N(CCCF)S(C)(=O)=O)c(-c3cccc(C(=O)NCC(C)(F)F)c3)cc12 [Compound 4019]	< 0.1 µM	0.0098 µM
